Assay results from patent US10918601B2, “Spray-dried pharmaceutical compositions comprising active agent nanoparticles” (Besins Healthcare Luxembourg SARL, priority 2013, dated 2021).

Assay: Particle size of mometasone furoate before milling, after roller milling and after spray drying
Format: physicochemical
Settings: before roller milling
Protocol: Spray Drying Conditions: Inlet temperature=110° C.; Outlet temperature=54° C.; Aspirator=100%; Pump rate=20%; Q flow=50%; Nozzle cap=1.5 mm.
Roller Milling Conditions: Mometasone Furoate—initial median size—19.7 μm. Samples are milled in 250 mL jars for 3 hours with 0.5 mm YTZ media. Particle size diameter (PSD), after 3 hours milling, is measured in water. After milling, the suspension is extracted (needle 22G) from jars and mixed according the table and procedure shown. Procedure for Preparation of the Spray Drying Suspensions: The amounts of HPMC, MCC and H2O used is based on the extracted quantity of the suspension (Table II). HPMC is added as a solution prepared in H2O. HPMC solution is added to the extracted suspension and mixed for 15 minutes. MCC (Grade PH-F20JP, 20 μm) is added and mixed for 15 minutes. Particle size diameter (PSD) is measured after spray drying by dispersing the spray-dried powder in a liquid such as isopropyl palmitate or silicone oil, which are non-solvents for the components and will not alter particle size or cause disintegration of the composite particle. Materials: Mometasone Furoate (Hovione, East Windsor, N.J.); Citric acid, anhydrous (Fisher, Hampton, N.H.); Benzalkonium chloride (Fluka, St. Louis, Mo.); Microcrystalline cellulose (AsahKasei, Glenview, Ill.); Hydroxypropylmethyl cellulose (Colorcon, Harleysville, Pa.). […]

initial median size: 19.7 μm
Compound: C[C@@H]1C[C@H]2[C@@H]3CCC4=CC(=O)C=C[C@]4(C)[C@@]3(Cl)[C@@H](O)C[C@]2(C)[C@@]1(OC(=O)c1ccco1)C(=O)CCl [Mometasone Furoate, (11β,16α)-9,21-dichloro-11-hydroxy-16-methyl-3,20-dioxopregna-1,4-dien-17-yl 2-furoate]
